# Legend:
# [1] = test system: hERG channel; test: western blot analysis of hERG channel trafficking in hERG-HEK293 cells; assay type: cell-based; settings: HEK293 cells expressing the hERG channel
# Experimental: (§1) 0.5 μM GDA was included as positive control and vehicle (D=DMSO) as negative control. […] Hsp90α siRNA was included as positive control and vehicle (lipofectamine) as negative control.
# [2] = test system: MOLM-13 leukemia cells; test: cells; settings: Homo sapiens
# [3] = test system: UM-UC3 bladder cancer cells; test: cells; settings: Homo sapiens, UMUC3
# [4] = test system: K562 leukemia cells; test: cells; settings: Homo sapiens
# [5] = test system: HTB-5 bladder cancer cells; test: tissue or blood
# [6] = test system: HCT-116 colon cancer cells; test: cells; settings: Homo sapiens
# [7] = test system: screened cancer cell lines; test: inhibitory activity against a variety of cancer cell lines; assay type: cell-based
# [8] = test system: HT1376 bladder cancer cells; test: cells; settings: Homo sapiens, HT-1376
# [9] = target: Hsp90β (Homo sapiens (Human), UniProt P08238); test: fluorescence polarization (FP) assay, competitive displacement of FITC labeled Geldanamycin; assay type: binding; settings: FP assay
# Experimental: Once prepared, the compounds were evaluated for their binding affinities against the cytosolic isoforms, Hsp90α and Hsp90β by measuring their ability to competitively displace FITC labeled Geldanamycin (GDA) in a fluorescence polarization assay (apparent Kd's listed in Table 1). […] The alkyne (4k) was investigated to determine whether a linear substituent could project into the subpocket and affect selectivity.
# [10] = test system: HTB-9 bladder cancer cells; test: tissue or blood
# [11] = test system: Hsp90 client proteins in HCT-116 cells; test: western blot analysis following treatment of HCT-116 cells; assay type: cell-based
# Experimental: as §1
# Sequence of Hsp90β (P08238 whole entry, canonical isoform): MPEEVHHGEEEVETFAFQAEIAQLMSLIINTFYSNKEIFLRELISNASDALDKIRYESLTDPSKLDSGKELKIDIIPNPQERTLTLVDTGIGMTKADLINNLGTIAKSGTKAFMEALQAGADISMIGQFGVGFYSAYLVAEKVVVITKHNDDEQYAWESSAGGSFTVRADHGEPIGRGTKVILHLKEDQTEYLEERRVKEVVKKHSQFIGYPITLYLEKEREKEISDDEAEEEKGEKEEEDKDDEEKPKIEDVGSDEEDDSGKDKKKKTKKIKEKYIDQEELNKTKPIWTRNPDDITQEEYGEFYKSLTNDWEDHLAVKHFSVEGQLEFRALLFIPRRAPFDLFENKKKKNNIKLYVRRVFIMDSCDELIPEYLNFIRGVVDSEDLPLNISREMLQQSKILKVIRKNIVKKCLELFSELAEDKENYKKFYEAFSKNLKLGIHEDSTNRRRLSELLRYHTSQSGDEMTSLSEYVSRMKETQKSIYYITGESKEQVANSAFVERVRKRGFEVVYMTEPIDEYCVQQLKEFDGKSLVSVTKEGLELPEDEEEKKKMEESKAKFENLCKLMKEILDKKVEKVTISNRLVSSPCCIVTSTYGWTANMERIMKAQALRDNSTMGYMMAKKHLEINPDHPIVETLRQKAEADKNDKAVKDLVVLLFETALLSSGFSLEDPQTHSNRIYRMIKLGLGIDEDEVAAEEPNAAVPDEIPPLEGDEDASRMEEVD
smiles,measurement,setting,value
"CCCC1Cc2cc(-n3nc(C)c4c3CC(C)(C)CC4=O)cc(N[C@H]3CC[C@H](O)CC3)c2C(=O)N1 (some centres unmarked) [Compound 6a, 8-(((1r,4r)-4-hydroxycyclohexyl)amino)-3-propyl-6-(3,6,6-trimethyl-4-oxo-4,5,6,7-tetrahydro-1H-indazol-1-yl)-3,4-dihydroisoquinolin-1(2H)-one]",hERG channel maturation and trafficking,[1],not affected
same,IC50,[2],39.4 nM
same,IC50,[3],1050 nM
same,IC50,[4],498 nM
same,IC50,[5],935 nM
same,IC50,[6],265 nM
same,IC50 values against the screened cancer cell lines (in words),[7],submicromolar
same,IC50,[8],716 nM
same,affinity for Hsp90β (in words),[9],increased binding affinity
same,selectivity for Hsp90β over Hsp90α (in words),[9],enhanced selectivity
same,IC50,[10],811 nM
same,"CDK4, CDK6, cIAP1 and CXCR4 levels (Hsp90β-dependent clients)",[11],induced the degradation
same,total levels of Akt-1 and Raf-1,[11],not affected
same,"Hsf-1, Hsp70 and Hsp90 levels",[11]; 24 h exposure,induced the degradation

# Reference: patent US12030867B2, “Hsp90β selective inhibitors” (University of Notre Dame du Lac, priority 2018, dated 2024)
